Data reported in ChEMBL document CHEMBL1909046, “DrugMatrix in vitro pharmacology data”.

Assays:
[1] = target: Aldo-keto reductase family 1 member B1 (Rattus norvegicus, UniProt P07943); format: tissue-based, Lens of camera-type eye;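 also: inhibition of aldose reductase enzyme activity, measured with DL-glyceraldehyde as the substrate; in other assays of this panel Not Active means under 50% inhibition at 10 µM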
[2] = target: T1, 5-hydroxytryptamine receptor 2C (Homo sapiens, UniProt P28335); assay: DRUGMATRIX: Serotonin (5-Hydroxytryptamine) 5-HT2C radioligand binding (ligand: [3H] Mesulergine); format: cell membranes, CHO-K1, Membrane; details: cho-k1; Not Active = under 50% inhibition at 10 µM
T1 sequence (P28335 whole entry): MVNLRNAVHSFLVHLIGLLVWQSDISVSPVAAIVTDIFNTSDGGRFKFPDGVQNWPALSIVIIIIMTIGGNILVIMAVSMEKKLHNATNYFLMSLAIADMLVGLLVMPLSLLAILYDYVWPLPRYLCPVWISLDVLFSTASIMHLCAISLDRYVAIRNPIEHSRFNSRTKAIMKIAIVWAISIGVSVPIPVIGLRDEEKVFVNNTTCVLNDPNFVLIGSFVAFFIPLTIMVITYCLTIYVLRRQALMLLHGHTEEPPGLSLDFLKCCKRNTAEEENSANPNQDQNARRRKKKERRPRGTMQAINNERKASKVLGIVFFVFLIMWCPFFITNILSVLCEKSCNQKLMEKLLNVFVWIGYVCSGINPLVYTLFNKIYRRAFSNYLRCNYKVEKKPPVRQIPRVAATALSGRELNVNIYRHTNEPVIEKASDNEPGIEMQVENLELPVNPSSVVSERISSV

[3] = DRUGMATRIX: Serotonin (5-Hydroxytryptamine) 5-HT3 radioligand binding (ligand: [3H] GR-65630); format: cell membranes, Membrane; details: hek293; Not Active = under 50% inhibition at 10 µM
[4] = DRUGMATRIX: GABAA, Chloride Channel, TBOB radioligand binding (ligand: [3H] TBOB); format: cell membranes, Rattus norvegicus, Wistar, Cerebral cortex, Membrane; details: Not Active = under 50% inhibition at 10 µM
[5] = DRUGMATRIX: Glutamate, NMDA, Agonism radioligand binding (ligand: [3H] CGP-39653); format: cell membranes, Rattus norvegicus, Wistar, Cerebral cortex, Membrane; details: Not Active = under 50% inhibition at 10 µM
Insulin receptor = Insulin receptor (Rattus norvegicus, UniProt P15127); format: cell membranes, Wistar, Liver, Membrane; also: in other assays of this panel Not Active means under 50% inhibition at 10 µM
[6] = DRUGMATRIX: Leukotriene, BLT (LTB4) radioligand binding (ligand: [3H]LTB4); format: cell membranes, Membrane; details: u-937; Not Active = under 50% inhibition at 10 µM
Leukotriene C4 synthase = target: T2, Leukotriene C4 synthase (Cavia porcellus, UniProt A6XA80); assay: biochemical; format: tissue-based, Lung;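 also: enzyme inhibition assay of leukotriene C4 synthase, using LTA4 as the substrate; in other assays of this panel Not Active means under 50% inhibition at 10 µM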
T2 sequence (A6XA80 whole entry): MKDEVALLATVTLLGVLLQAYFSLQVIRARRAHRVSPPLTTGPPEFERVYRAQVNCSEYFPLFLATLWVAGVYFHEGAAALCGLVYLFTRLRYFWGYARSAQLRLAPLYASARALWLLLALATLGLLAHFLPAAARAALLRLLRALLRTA

Melanocortin receptor 3 = Melanocortin receptor 3 (Homo sapiens, UniProt P41968); format: cell membranes, Membrane; details: hek293; also: in other assays of this panel Not Active means under 50% inhibition at 10 µM
[7] = target: T3, Muscarinic acetylcholine receptor M5 (Homo sapiens, UniProt P08912); format: cell membranes, CHO-K1, Membrane; details: cho-k1; also: in other assays of this panel Not Active means under 50% inhibition at 10 µM
T3 sequence (P08912 whole entry): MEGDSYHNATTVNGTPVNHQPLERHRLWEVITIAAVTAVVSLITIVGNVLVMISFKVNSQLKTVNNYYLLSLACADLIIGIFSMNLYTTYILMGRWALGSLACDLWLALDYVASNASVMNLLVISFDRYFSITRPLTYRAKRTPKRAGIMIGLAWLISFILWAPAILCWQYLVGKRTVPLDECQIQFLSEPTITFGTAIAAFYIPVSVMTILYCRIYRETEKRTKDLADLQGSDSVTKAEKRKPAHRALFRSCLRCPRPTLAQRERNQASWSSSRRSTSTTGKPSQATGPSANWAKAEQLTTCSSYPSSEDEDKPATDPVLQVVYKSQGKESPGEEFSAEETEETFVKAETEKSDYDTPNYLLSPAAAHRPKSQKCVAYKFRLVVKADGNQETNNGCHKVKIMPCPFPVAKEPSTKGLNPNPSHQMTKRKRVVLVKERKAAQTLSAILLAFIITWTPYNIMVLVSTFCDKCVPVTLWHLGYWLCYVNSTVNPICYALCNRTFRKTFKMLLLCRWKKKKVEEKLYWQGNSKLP

[8] = target: Delta-type opioid receptor (Homo sapiens, UniProt P41143); format: cell membranes, HEK293, Membrane; details: hek293; also: in other assays of this panel Not Active means under 50% inhibition at 10 µM
Mu-type opioid receptor = Mu-type opioid receptor (Homo sapiens, UniProt P35372); assay: DRUGMATRIX: Opiate mu (OP3, MOP) radioligand binding (ligand: [3H] Diprenorphine); format: cell membranes, CHO-K1, Membrane; details: cho-k1; Not Active = under 50% inhibition at 10 µM
[9] = target: T4, 5-hydroxytryptamine receptor 1A (Rattus norvegicus, UniProt P19327); format: cell membranes, CHO-K1, Membrane; details: cho-k1; also: in other assays of this panel Not Active means under 50% inhibition at 10 µM
T4 sequence (P19327 whole entry): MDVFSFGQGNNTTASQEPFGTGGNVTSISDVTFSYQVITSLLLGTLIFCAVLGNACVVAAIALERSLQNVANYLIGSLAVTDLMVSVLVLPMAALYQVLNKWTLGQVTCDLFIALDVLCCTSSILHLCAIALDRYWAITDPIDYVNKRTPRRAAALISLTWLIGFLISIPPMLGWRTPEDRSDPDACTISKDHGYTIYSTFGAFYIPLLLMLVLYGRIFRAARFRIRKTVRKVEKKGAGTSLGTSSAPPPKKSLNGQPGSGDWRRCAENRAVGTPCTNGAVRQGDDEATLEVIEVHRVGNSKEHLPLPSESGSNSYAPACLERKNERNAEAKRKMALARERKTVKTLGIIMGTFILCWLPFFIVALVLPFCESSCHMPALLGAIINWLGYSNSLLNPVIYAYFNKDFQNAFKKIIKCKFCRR

Cytochrome P450 2A6 = target: T5, Cytochrome P450 2A6 (Homo sapiens, UniProt P11509); details: bti-tn-5b1-4; also: in other assays of this panel Not Active means under 50% inhibition at 10 µM
T5 sequence (P11509 whole entry): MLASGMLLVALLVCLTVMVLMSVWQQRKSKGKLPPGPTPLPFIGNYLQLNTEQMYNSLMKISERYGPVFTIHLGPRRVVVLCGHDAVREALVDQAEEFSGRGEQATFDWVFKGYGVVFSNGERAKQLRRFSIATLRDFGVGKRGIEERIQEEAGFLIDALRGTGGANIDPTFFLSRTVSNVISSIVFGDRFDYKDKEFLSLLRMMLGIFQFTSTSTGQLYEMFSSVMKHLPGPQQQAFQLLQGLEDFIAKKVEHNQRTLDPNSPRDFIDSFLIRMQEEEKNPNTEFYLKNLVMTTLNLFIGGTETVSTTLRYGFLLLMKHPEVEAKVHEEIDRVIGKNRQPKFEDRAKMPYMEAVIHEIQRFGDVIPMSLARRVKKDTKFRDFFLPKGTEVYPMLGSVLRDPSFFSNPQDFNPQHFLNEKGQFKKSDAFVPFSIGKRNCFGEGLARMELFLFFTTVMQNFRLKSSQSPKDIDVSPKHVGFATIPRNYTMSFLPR

Chain of Mu-type opioid receptor (P35372 whole entry): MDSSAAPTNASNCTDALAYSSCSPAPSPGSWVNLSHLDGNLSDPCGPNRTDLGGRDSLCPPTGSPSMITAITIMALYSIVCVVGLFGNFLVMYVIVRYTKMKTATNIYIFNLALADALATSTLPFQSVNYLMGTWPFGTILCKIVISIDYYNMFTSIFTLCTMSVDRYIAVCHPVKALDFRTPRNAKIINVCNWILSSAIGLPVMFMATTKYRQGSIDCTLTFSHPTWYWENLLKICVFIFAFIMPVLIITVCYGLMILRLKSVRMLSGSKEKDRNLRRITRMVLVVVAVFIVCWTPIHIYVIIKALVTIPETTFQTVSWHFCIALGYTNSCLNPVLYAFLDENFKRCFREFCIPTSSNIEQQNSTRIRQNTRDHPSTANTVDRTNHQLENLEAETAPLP
Chain of Insulin receptor (P15127 27-759 limits assumed): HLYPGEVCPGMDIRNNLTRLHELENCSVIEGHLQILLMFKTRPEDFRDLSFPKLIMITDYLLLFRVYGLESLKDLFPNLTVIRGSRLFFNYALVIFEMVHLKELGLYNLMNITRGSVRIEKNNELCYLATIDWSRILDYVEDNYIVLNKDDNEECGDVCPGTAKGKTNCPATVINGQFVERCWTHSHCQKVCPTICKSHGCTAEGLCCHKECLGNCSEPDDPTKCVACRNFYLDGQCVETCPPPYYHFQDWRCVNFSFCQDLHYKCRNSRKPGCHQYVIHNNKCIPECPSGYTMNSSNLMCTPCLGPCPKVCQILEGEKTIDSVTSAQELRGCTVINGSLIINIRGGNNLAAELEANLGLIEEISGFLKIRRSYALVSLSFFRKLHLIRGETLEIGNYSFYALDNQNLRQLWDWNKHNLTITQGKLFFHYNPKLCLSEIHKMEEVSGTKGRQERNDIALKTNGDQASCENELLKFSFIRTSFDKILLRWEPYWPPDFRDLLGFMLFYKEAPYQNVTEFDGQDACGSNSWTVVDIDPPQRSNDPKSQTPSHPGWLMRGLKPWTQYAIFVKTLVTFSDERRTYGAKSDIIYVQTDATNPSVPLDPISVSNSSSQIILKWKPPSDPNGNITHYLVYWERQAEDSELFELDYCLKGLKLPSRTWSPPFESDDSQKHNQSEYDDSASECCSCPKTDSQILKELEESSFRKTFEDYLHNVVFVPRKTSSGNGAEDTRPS
Chain of Insulin receptor (P15127 764-1383 limits assumed): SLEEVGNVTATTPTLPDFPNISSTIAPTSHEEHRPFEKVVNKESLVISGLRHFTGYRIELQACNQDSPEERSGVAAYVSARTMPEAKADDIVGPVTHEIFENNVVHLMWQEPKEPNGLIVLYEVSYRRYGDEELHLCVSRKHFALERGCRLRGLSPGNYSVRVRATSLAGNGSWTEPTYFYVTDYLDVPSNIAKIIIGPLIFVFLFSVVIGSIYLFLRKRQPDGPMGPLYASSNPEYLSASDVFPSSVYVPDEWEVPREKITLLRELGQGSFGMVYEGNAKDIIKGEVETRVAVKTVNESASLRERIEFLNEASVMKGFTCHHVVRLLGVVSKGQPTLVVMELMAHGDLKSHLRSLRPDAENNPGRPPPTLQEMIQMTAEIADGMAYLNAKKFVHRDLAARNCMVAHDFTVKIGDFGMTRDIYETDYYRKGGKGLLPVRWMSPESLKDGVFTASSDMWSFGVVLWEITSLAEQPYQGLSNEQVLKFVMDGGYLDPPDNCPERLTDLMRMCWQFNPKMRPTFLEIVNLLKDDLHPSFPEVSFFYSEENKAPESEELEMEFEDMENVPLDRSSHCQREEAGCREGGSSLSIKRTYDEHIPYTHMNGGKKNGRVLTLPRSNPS
Chain of Melanocortin receptor 3 (P41968 whole entry): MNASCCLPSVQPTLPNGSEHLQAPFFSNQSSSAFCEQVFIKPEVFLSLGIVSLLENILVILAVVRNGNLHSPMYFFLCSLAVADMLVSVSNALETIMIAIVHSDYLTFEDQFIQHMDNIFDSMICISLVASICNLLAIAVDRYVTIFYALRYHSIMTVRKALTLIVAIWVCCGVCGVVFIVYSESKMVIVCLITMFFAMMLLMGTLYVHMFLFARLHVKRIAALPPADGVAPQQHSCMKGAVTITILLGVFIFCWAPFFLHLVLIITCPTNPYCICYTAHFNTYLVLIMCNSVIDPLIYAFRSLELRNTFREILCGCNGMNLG
Chain of Delta-type opioid receptor (P41143 whole entry): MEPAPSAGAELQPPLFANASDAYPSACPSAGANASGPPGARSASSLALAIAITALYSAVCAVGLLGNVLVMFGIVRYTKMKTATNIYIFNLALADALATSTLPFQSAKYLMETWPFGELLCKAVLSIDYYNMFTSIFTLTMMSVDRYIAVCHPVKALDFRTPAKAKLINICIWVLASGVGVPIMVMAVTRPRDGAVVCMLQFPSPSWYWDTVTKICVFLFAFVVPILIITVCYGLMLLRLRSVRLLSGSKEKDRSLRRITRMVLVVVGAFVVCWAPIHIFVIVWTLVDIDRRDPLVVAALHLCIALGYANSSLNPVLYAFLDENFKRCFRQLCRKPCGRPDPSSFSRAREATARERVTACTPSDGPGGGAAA

CC(C)(C)NCC(O)c1ccc(O)c(CO)c1 (stereo not given) [ALBUTEROL]
Not Active: IC50 [1] | IC50 [2] | IC50 [3] | Ki [3] | IC50 [4] | Ki [4] | IC50 [5] | Ki [5] | IC50 (Insulin receptor) | IC50 [6] | Ki [6] | IC50 (Leukotriene C4 synthase) | IC50 (Melanocortin receptor 3) | IC50 [7] | IC50 [8] | IC50 (Mu-type opioid receptor) | IC50 [9] | IC50 (Cytochrome P450 2A6) | Ki (Cytochrome P450 2A6)

Oc1c(I)cc(I)c2cccnc12 [IODOQUINOL]
Not Active: IC50 [1] | IC50 [2] | IC50 [3] | Ki [3] | IC50 [4] | Ki [4] | IC50 [5] | Ki [5] | IC50 (Insulin receptor) | IC50 [6] | Ki [6] | IC50 (Leukotriene C4 synthase) | IC50 (Melanocortin receptor 3) | IC50 [7] | IC50 [8] | IC50 (Mu-type opioid receptor) | IC50 [9] | IC50 (Cytochrome P450 2A6) | Ki (Cytochrome P450 2A6)

NNC(=O)c1ccncc1 [ISONIAZID]
Not Active: IC50 [1] | IC50 [2] | IC50 [3] | Ki [3] | IC50 [4] | Ki [4] | IC50 [5] | Ki [5] | IC50 (Insulin receptor) | IC50 [6] | Ki [6] | IC50 (Leukotriene C4 synthase) | IC50 (Melanocortin receptor 3) | IC50 [7] | IC50 [8] | IC50 (Mu-type opioid receptor) | IC50 [9] | IC50 (Cytochrome P450 2A6) | Ki (Cytochrome P450 2A6)

CC1=C(/C=C/C(C)=C/C=C/C(C)=C\C(=O)O)C(C)(C)CCC1 [ISOTRETINOIN]
Not Active: IC50 [1] | IC50 [2] | IC50 [3] | Ki [3] | IC50 [4] | Ki [4] | IC50 [5] | Ki [5] | IC50 (Insulin receptor) | IC50 [6] | Ki [6] | IC50 (Leukotriene C4 synthase) | IC50 (Melanocortin receptor 3) | IC50 [7] | IC50 [8] | IC50 (Mu-type opioid receptor) | IC50 [9] | IC50 (Cytochrome P450 2A6) | Ki (Cytochrome P450 2A6)

CO[C@@H]1[C@@H](O[C@@H]2O[C@H](C)[C@@H](O[C@H]3C[C@@](C)(O)[C@@H](OC(=O)CC(C)C)[C@H](C)O3)[C@H](N(C)C)[C@H]2O)[C@@H](CC=O)C[C@@H](C)[C@@H](O)/C=C/C=C/C[C@@H](C)OC(=O)C[C@H]1O [KITASAMYCIN]
Not Active: IC50 [1] | IC50 [2] | IC50 [3] | Ki [3] | IC50 [4] | Ki [4] | IC50 [5] | Ki [5] | IC50 (Insulin receptor) | IC50 [6] | Ki [6] | IC50 (Leukotriene C4 synthase) | IC50 (Melanocortin receptor 3) | IC50 [7] | IC50 [8] | IC50 (Mu-type opioid receptor) | IC50 [9] | IC50 (Cytochrome P450 2A6) | Ki (Cytochrome P450 2A6)
